Source: patent US20070167400A1, “Chitosan oligosaccharides and uses thereof” (priority 2001, published 2007)

Legend:
[1] = system: prostaglandin E2 (PGE2) release by human keratinocytes; assay: PGE2 release by human keratinocytes (ELISA), unstimulated, UVB or PMA stimulated; format: cell-based
Method: The objectives of the present study are to evaluate the anti-inflammatory effects of two chitosan oligosaccharides (product […] and product […]) according to the present invention, and, more particularly on prostaglandin E2 (PGE2) and IL-1β release by human keratinocytes under a UVB irradiation. […] Other plates were kept in the dark. […] After thawing and centrifugation of the medium, the content in PGE2 was measured in ELISA with a R&D Systems kit (DE0100), according to the recommended protocol of the supplier. The IL1β content was measured in ELISA with a Immunotech kit (1042), according to the recommended protocol of the supplier. The raw data were transformed and treated by the software PRISM® (Graph Pad Software). The intergroup comparisons were realized by analysis of variance (ANOVA), with the multiple comparison test […].

[2] = system: C57BL/6 mice spleen lymphocytes; assay: Stimulation of spleen lymphocytes by supernatants of treated peritoneal macrophages (MTS/PMS); format: cell-based
Method: FIG. 1 is a graphic illustrating the levels of stimulation of the C57BL/6 mice spleen lymphocytes incubated in vitro with macrophage supernatants treated with various concentrations of chitosan oligomers and glucosamine in (A) with and without the presence of peptidoglycan (B), as measured by the activity of the mitochondrial dehydrogenase on formazan salts (MTS/PMS) after 72 hrs of incubation (n=3).
The first experiment consisted in verifying if Product W was able to induce an […] effect. With this in mind, various concentrations of Product W (10 to 160 μg/ml) were incubated with peritoneal macrophages during a 24 hour period and the immunostimulating properties of the supernatants were measured on C57BL/6 mice spleen lymphocytes. The metabolic activity of spleen lymphocytes was measured by the level of Formazan salts transformation (mitochondrial dehydrogenase: MTS/PMS). As control, the dimer of glucosamine (product A), the trimer of glucosamine (product B) and a mixture of dimer-trimer in a ratio of 40:60 (mixture AB) was also studied and the results compared with those induced by glucosamine (product D). Positive controls of pro-inflammatory substances were added, such as lipopolysaccharides of E. coli (LPS) and peptidoglycan of S. Aureus (PEP).
In a second experiment, the macrophages were stimulated by peptidoglycan, (that has a stronger activation on the inflammatory response than LPS), and the capacity of products A, B, AB and W to decrease the stimulation of the lymphocytes was evaluated. […] The reduction induced by Product W, though slight, seems stronger than that induced by glucosamine (product D).

[3] = system: IL-6 production in mice macrophages C57BL/6; assay: IL-6 production in macrophages (ELISA); format: cell-based, C57BL/6 mice; settings: non-activated macrophages
Method: FIG. 3 is a graphic illustrating the levels of IL-6 production in mice macrophages C57BL/6 treated in vitro with various concentrations of chitosan oligomers and glucosamine (A) with and without the presence of peptidoglycan (B), as measured by an ELISA test (n=3). […] LPS and PEP were added as positive controls. Non-activated macrophages were treated with products A, B and W and the IL-6 production was compared with the effects of glucosamine (product D). LPS and PEP were added as positive controls.

[4] = system: IL-1β release by human keratinocytes; assay: IL-1β release by human keratinocytes (ELISA), unstimulated, UVB or PMA stimulated; format: cell-based; settings: dexamethasone 0.1 μM
Method: • Reference 1: (PGE2 induction): Indomethacin (Sigma 17378), tested at 1 μM (final) • Reference 2: (IL1β induction): Dexamethazone (Sigma D1756), tested at 0.1 μM (final) Treatments and Assays
Other plates were kept in the dark.
After thawing and centrifugation of the medium, the content in PGE2 was measured in ELISA with a R&D Systems kit (DE0100), according to the recommended protocol of the supplier. The IL1β content was measured in ELISA with a Immunotech kit (1042), according to the recommended protocol of the supplier.
The raw data were transformed and treated by the software PRISM® (Graph Pad Software). The intergroup comparisons were realized by analysis of variance (ANOVA), with the multiple comparison test DUNNETT.

[5] = system: TNF-α production in C57BL/6 mice macrophages; assay: TNF-α production in macrophages (ELISA); format: cell-based; settings: macrophages activated by PEP
Method: LPS and PEP were added as positive controls. The first cytokine studied was tumor necrosis factor (TNF-α) which is the first cytokine produced and induces the production of the other pro-inflammatory cytokines.

[6] = system: IL-10 production in mice macrophages C57BL/6; assay: IL-10 production in macrophages (ELISA); format: cell-based, C57BL/6 mice
Method: LPS and PEP were added as positive controls. We then verified the IL-10 production levels, a very powerful anti-inflammatory cytokine. Peritoneal macrophages are normally good producers of IL-10 since a normal intestinal system requires a high immunological tolerance to operate correctly. Non-activated macrophages were incubated with the various products, as well as LPS and PEP as positive controls, during 24 hours.

[7] = no stimulation, indomethacin 1 μM
[8] = supernatants of non-activated macrophages, 10 to 160 μg/ml, 24 hour

## COc1ccc2c(c1)c(CC(=O)O)c(C)n2C(=O)c1ccc(Cl)cc1 [Indomethacin]
[1]; PMA stimulation
  effect on PGE2 release induced by PMA (in words): totally blocked the PGE2 production/release
[1]; PMA stimulation 1 μg/ml, indomethacin 1 μM
  PGE2: 10 pg/mL
[1]; PMA stimulation, indomethacin 1 μM
  PGE2 % (of control): 0%
[1]; UVB stimulation
  effect on PGE2 release (in words): significantly reduced the PGE2 release
[1]; UVB stimulation 250 mJ/cm2, indomethacin 1 μM
  PGE2: 7.3 pg/mL
[1]; UVB stimulation, indomethacin 1 μM
  PGE2 % (of control): 22%
[1]; [7]
  PGE2: 0.9 pg/mL
  PGE2 % (of control): 8%
  effect on basal PGE2 production/release (in words): apparently totally blocked the production/release of this basal level

## N[C@H]1[C@H](O[C@H]2[C@H](O)[C@@H](N)C(O)O[C@@H]2CO)O[C@H](CO)[C@@H](O)[C@@H]1O (stereo partly drawn) [Product A]
[2]; non-activated macrophages, 80 μg/ml
  effect on lymphocyte activity (in words), FIG. 1A: slight increase
[2]; non-activated macrophages, 10 μ/ml
  effect on lymphocyte activity (in words), FIG. 1A: slight decrease
[3]
  effect on IL-6 production (in words), FIG. 3A: slightly decrease

## N[C@H]1[C@H](O[C@H]2[C@H](O)[C@@H](N)[C@H](O[C@H]3[C@H](O)[C@@H](N)C(O)O[C@@H]3CO)O[C@@H]2CO)O[C@H](CO)[C@@H](O)[C@@H]1O (stereo partly drawn) [Product B]
[2]; macrophages stimulated by peptidoglycan (PEP)
  effect on lymphocyte stimulation induced by PEP (in words), FIG. 1B: with the weakest concentration tested was able to decrease this stimulation
[2]; [8]
  effect on lymphocyte activity (in words), FIG. 1A: slight stimulation with the smallest doses only
[3]
  effect on IL-6 production (in words), FIG. 3A: increase

## C[C@@H]1C[C@H]2[C@@H]3CCC4=CC(=O)C=C[C@]4(C)[C@@]3(F)[C@@H](O)C[C@]2(C)[C@@]1(O)C(=O)CO [dexamethasone, Dexamethazone]
[4]; PMA stimulation 1 μg/ml
  IL1β: 0.2 pg/mL
[4]; PMA stimulation
  IL1β % (of control): 5%
[4]; no stimulation
  IL-1β % (of control): 8%

## N[C@H]1C(O)O[C@H](CO)[C@@H](O)[C@@H]1O (stereo partly drawn) [glucosamine]
[2]; [8]
  effect on lymphocyte activity (in words), FIG. 1A: slightly increased the lymphocyte activity
[5]; 10 μg/ml
  effect on TNF-α (in words), FIG. 2B: increased the level of TNF-α
[5]; highest concentration
  effect on TNF-α (in words), FIG. 2B: induced a reduction
[3]
  effect on IL-6 production (in words), FIG. 3A: did not modify this cytokine
[6]; macrophages activated by PEP
  effect on IL-10 production (in words), FIG. 4B: no detectable effect
[6]; non-activated macrophages, 24 hours
  effect on IL-10 production (in words), FIG. 4A: slightly increased the IL-10 production
